For 19 molecules, T/C results are on record in PubChem BioAssay AID256 (DTP/NCI, 2004).

Several values for one entry are separate records, joined by “and”; a condition that tells them apart may be missing. Equal values may be shown once. Inconclusive results and toxic doses are left out.

In this assay the test system is CD2F1 mice, L1210 leukemia ip, survival T/C. The assay is described as follows: NCI In Vivo Anticancer Drug Screen. Data for tumor model L1210 Leukemia (intraperitoneal) in CD2F1 (CDF1) mice. The note with it: higher = longer survival. In short, it runs like this:
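In this screen, transplantable tumors were grown in mice given either the compound or its vehicle. Results were expressed as the treated measurement relative to the control measurement.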

[1] abbreviates: endpoint: mean survival time, dose: 100.0 mg/kg/injection, schedule: Q01DX009 (ip), vehicle: saline with Tween-80.
The mark [2] stands for this setting: endpoint: mean survival time, dose: 100.0 mg/kg/injection, schedule: Q04DX003 (ip), vehicle: saline with Tween-80.
[3] abbreviates: endpoint: mean survival time, dose: 200.0 mg/kg/injection, schedule: Q01DX009 (ip), vehicle: saline with Tween-80.
[4] abbreviates: endpoint: mean survival time, dose: 200.0 mg/kg/injection, schedule: Q04DX003 (ip), vehicle: saline with Tween-80.
[5] abbreviates: endpoint: mean survival time, dose: 400.0 mg/kg/injection, schedule: Q04DX003 (ip), vehicle: saline with Tween-80.
[6] abbreviates: endpoint: mean survival time, dose: 100.0 mg/kg/injection, schedule: Q01DX001 (ip), vehicle: saline with Tween-80.
[7] abbreviates: endpoint: mean survival time, dose: 100.0 mg/kg/injection, schedule: Q04DX002 (ip), vehicle: saline with Tween-80.
The mark [8] stands for this setting: endpoint: mean survival time, dose: 200.0 mg/kg/injection, schedule: Q01DX001 (ip), vehicle: saline with Tween-80.
[9] abbreviates: endpoint: mean survival time, dose: 200.0 mg/kg/injection, schedule: Q04DX002 (ip), vehicle: saline with Tween-80.
[10] abbreviates: endpoint: mean survival time, dose: 400.0 mg/kg/injection, schedule: Q01DX001 (ip), vehicle: saline with Tween-80.
[11] abbreviates: endpoint: mean survival time, dose: 50.0 mg/kg/injection, schedule: Q04DX002 (ip), vehicle: saline with Tween-80.

As to `C[n+]1c(-c2cccc(-c3ccccc3)c2)c2cc([N+](=O)[O-])ccc2c2ccccc21`, the T/C (endpoint: mean survival time, dose: 1.56 mg/kg/injection, schedule: Q01DX009 (ip), vehicle: Klucel (hydroxypropylcellulose) (HPC)) was 93 % of control; the T/C (endpoint: mean survival time, dose: 3.13 mg/kg/injection, schedule: Q01DX009 (ip), vehicle: Klucel (hydroxypropylcellulose) (HPC)) is 94 % of control; the T/C (endpoint: mean survival time, dose: 6.25 mg/kg/injection, schedule: Q01DX009 (ip), vehicle: Klucel (hydroxypropylcellulose) (HPC)) was 98 % of control; the T/C (endpoint: mean survival time, dose: 12.5 mg/kg/injection, schedule: Q01DX009 (ip), vehicle: Klucel (hydroxypropylcellulose) (HPC)) is 92 % of control; the T/C (endpoint: mean survival time, dose: 25.0 mg/kg/injection, schedule: Q01DX009 (ip), vehicle: Klucel (hydroxypropylcellulose) (HPC)) is 96 % of control; the T/C (endpoint: mean survival time, dose: 25.0 mg/kg/injection, schedule: Q01DX009 (ip), vehicle: water) is 97 % of control.
On to `CC1(C)C(CC(=O)O)CC1C(=O)O` (stereo not given), for which the T/C runs as follows: under setting [1], 98 % of control; under setting [2], 100 % of control; under setting [3], 98 % of control; under setting [4], 96 % of control; under setting [5], 100 % of control.
As to `CCCNC(=O)NO`, the T/C is 97 % of control (endpoint: mean survival time, dose: 4.0 mg/kg/injection, schedule: Q03HX024 (ip), vehicle: other); 97 % of control (endpoint: mean survival time, dose: 8.0 mg/kg/injection, schedule: Q03HX024 (ip), vehicle: other); 96 % of control (endpoint: mean survival time, dose: 16.0 mg/kg/injection, schedule: Q03HX024 (ip), vehicle: other); 98 % of control (endpoint: mean survival time, dose: 32.0 mg/kg/injection, schedule: Q03HX024 (ip), vehicle: other); 97 % of control (endpoint: mean survival time, dose: 64.0 mg/kg/injection, schedule: Q03HX024 (ip), vehicle: other).
In the case of `COC(=O)C1C2C=CC(C3C=CC32)C1C(=O)OC` (stereo not given), the T/C under setting [1] was 97 % of control; the T/C under setting [3] is 94 % of control; the T/C (endpoint: mean survival time, dose: 400.0 mg/kg/injection, schedule: Q01DX009 (ip), vehicle: saline with Tween-80) was 95 % of control.
For the molecule `CCOC(=O)/C(N=O)=C(/C)O`, the T/C was 96 % of control (endpoint: mean survival time, dose: 100.0 mg/kg/injection, schedule: Q01DX009 (ip), vehicle: saline); 101 % of control (endpoint: mean survival time, dose: 200.0 mg/kg/injection, schedule: Q01DX009 (ip), vehicle: saline); 110 % of control (endpoint: mean survival time, dose: 400.0 mg/kg/injection, schedule: Q01DX009 (ip), vehicle: saline).
`O=[As](O)(O)c1ccccc1[As](=O)(O)O`: the T/C (endpoint: mean survival time, dose: 6.25 mg/kg/injection, schedule: Q04DX003 (ip), vehicle: saline with Tween-80) was 101 % of control; the T/C (endpoint: mean survival time, dose: 12.5 mg/kg/injection, schedule: Q04DX003 (ip), vehicle: saline with Tween-80) was 101 % of control; the T/C (endpoint: mean survival time, dose: 25.0 mg/kg/injection, schedule: Q04DX003 (ip), vehicle: saline with Tween-80) is 100 % of control.
As to `CNc1ncnc2[nH]cc([N+](=O)[O-])c12`, the T/C is, setting by setting: (endpoint: mean survival time, dose: 75.0 mg/kg/injection, schedule: Q01DX001 (ip), vehicle: saline) 96 % of control; (endpoint: mean survival time, dose: 150.0 mg/kg/injection, schedule: Q01DX001 (ip), vehicle: saline) 106 % of control; (endpoint: mean survival time, dose: 300.0 mg/kg/injection, schedule: Q01DX001 (ip), vehicle: saline) 106 % of control.
For `O=C(N/N=C\c1ccc([N+](=O)[O-])cc1)c1ccccc1`, the T/C runs as follows: under setting [2], 94 % of control; under setting [4], 94 % of control; under setting [5], 92 % of control.
Turning to `O=CC(O)C(O)C(O)C(O)C(=O)O.O=CC(O)C(O)C(O)C(O)C(=O)O.[NH-]C1CCCCC1[NH-].[Pt+2]` (stereo not given), the T/C runs as follows: (endpoint: mean survival time, dose: 1.56 mg/kg/injection, schedule: Q04DX003 (ip), vehicle: saline) 118 % of control; (endpoint: mean survival time, dose: 3.12 mg/kg/injection, schedule: Q04DX003 (ip), vehicle: saline) 114 % of control; (endpoint: mean survival time, dose: 6.25 mg/kg/injection, schedule: Q04DX003 (ip), vehicle: saline) 191 % of control and 184 % of control; (endpoint: mean survival time, dose: 12.5 mg/kg/injection, schedule: Q04DX003 (ip), vehicle: saline) 212 % of control and 168 % of control and 213 % of control; (endpoint: mean survival time, dose: 25.0 mg/kg/injection, schedule: Q04DX003 (ip), vehicle: saline) 274 % of control [middle of 4 runs]; (endpoint: mean survival time, dose: 50.0 mg/kg/injection, schedule: Q04DX003 (ip), vehicle: saline) 154 % of control and 216 % of control and 330 % of control. Besides, the T/C (endpoint: median survival time, dose: 3.12 mg/kg/injection, schedule: Q04DX003 (ip), vehicle: saline) is 104 % of control; the T/C (endpoint: median survival time, dose: 6.25 mg/kg/injection, schedule: Q04DX003 (ip), vehicle: saline) was 106 % of control; the T/C (endpoint: median survival time, dose: 12.5 mg/kg/injection, schedule: Q04DX003 (ip), vehicle: saline) was 106 % of control; the T/C (endpoint: median survival time, dose: 25.0 mg/kg/injection, schedule: Q04DX003 (ip), vehicle: saline) is 107 % of control; the T/C (endpoint: median survival time, dose: 50.0 mg/kg/injection, schedule: Q04DX003 (ip), vehicle: saline) is 111 % of control; the T/C (endpoint: median survival time, dose: 100.0 mg/kg/injection, schedule: Q04DX003 (ip), vehicle: saline) was 110 % of control. Further, for the setting “endpoint: median survival time, dose: 200.0 mg/kg/injection, schedule: Q04DX003 (ip), vehicle: saline”, the T/C was 116 % of control.
Regarding `COc1cc(OC)c(C(=O)c2ccccc2N)c(OC)c1`, the T/C was 98 % of control (endpoint: mean survival time, dose: 50.0 mg/kg/injection, schedule: Q01DX009 (ip), vehicle: saline with Tween-80); 101 % of control under setting [1]; 98 % of control under setting [3].
Turning to `OC1CCCCC(O)CCCC1` (stereo not given), the T/C reads like this: under setting [6], 110 % of control; under setting [7], 95 % of control; under setting [8], 116 % of control; under setting [9], 98 % of control; under setting [10], 118 % of control; (endpoint: mean survival time, dose: 400.0 mg/kg/injection, schedule: Q04DX002 (ip), vehicle: saline with Tween-80) 101 % of control.
On to `COC(=O)Nc1ccccc1`, for which the T/C by setting is: (endpoint: mean survival time, dose: 100.0 mg/kg/injection, schedule: Q04DX003 (ip), vehicle: saline + alcohol) 101 % of control; (endpoint: mean survival time, dose: 200.0 mg/kg/injection, schedule: Q04DX003 (ip), vehicle: saline + alcohol) 98 % of control; (endpoint: mean survival time, dose: 400.0 mg/kg/injection, schedule: Q04DX003 (ip), vehicle: saline + alcohol) 98 % of control.
Regarding `C/C=C(\C)C(=O)O[C@@H]1c2cc3c(cc2-c2c(cc(OC)c(OC)c2OC)[C@@H]2C(=O)OC[C@@H]12)OCO3`, the T/C is, setting by setting: (endpoint: mean survival time, dose: 1.25 mg/kg/injection, schedule: Q01DX009 (ip), vehicle: Klucel (hydroxypropylcellulose) (HPC)) 112 % of control; (endpoint: mean survival time, dose: 2.5 mg/kg/injection, schedule: Q01DX009 (ip), vehicle: Klucel (hydroxypropylcellulose) (HPC)) 106 % of control; (endpoint: mean survival time, dose: 5.0 mg/kg/injection, schedule: Q01DX009 (ip), vehicle: Klucel (hydroxypropylcellulose) (HPC)) 106 % of control; (endpoint: mean survival time, dose: 10.0 mg/kg/injection, schedule: Q01DX009 (ip), vehicle: Klucel (hydroxypropylcellulose) (HPC)) 95 % of control.
As to `CCOC(=O)C(CCC(O)C#N)(NC(C)=O)C(=O)OCC` (stereo not given), the T/C reads like this: (endpoint: mean survival time, dose: 25.0 mg/kg/injection, schedule: Q04DX002 (ip), vehicle: saline with Tween-80) 101 % of control; under setting [11], 96 % of control; under setting [7], 100 % of control.
In the case of `O=C(c1ccccc1)C1C(C(=O)c2ccccc2)C1c1ccccc1` (stereo not given), the T/C under setting [6] is 87 % of control, the T/C under setting [8] is 90 % of control and the T/C under setting [10] was 93 % of control.
On the same counts, the results for `CCOC(=O)CC(=O)NCCc1ccccc1OC` are 102 % of control, 105 % of control and 102 % of control.
Turning to `Nc1cc2[nH]cnc2c(=O)[nH]1`, the T/C is 105 % of control (endpoint: mean survival time, dose: 12.5 mg/kg/injection, schedule: Q01DX009 (ip), vehicle: suspension in saline); 97 % of control and 111 % of control (endpoint: mean survival time, dose: 25.0 mg/kg/injection, schedule: Q01DX005 (ip), vehicle: saline); 113 % of control (endpoint: mean survival time, dose: 25.0 mg/kg/injection, schedule: Q01DX009 (ip), vehicle: suspension in saline); 114 % of control and 119 % of control (endpoint: mean survival time, dose: 50.0 mg/kg/injection, schedule: Q01DX005 (ip), vehicle: saline); 90 % of control (endpoint: mean survival time, dose: 400.0 mg/kg/injection, schedule: Q01DX009 (ip), vehicle: suspension in saline).
For the molecule `CCCC/C=C/C(O)CC` (stereo not given), the T/C under setting [2] is 98 % of control, the T/C under setting [4] was 102 % of control and the T/C under setting [5] is 96 % of control.
As for `Cc1nn(-c2ccccc2)c2c1C(=O)NC2Cc1ccccc1` (stereo not given), the T/C under setting [11] was 103 % of control, the T/C under setting [7] is 100 % of control and the T/C under setting [9] is 100 % of control.
